Experimental data taken from patent US9540362B2, “Sphingosine-1-phosphate receptor agonists, methods of preparing the same, and pharmaceutical compositions containing the same as an active agent” (LG LIFE SCIENCES LTD., priority 2013, dated 2017).

Assays:
[1] = target: human sphingosine-1-phosphate 1 receptor (S1P1 receptor) (Homo sapiens, UniProt P21453); assay: Ca2+ inducing ability using CHO cells overexpressing human S1P1 receptor (Calcium 5 assay kit); assay type: cell-based; conditions: CHO cells overexpressing human S1P1, calcium RFU; S1P 1 μM = 100%
Source text: Evaluation of Ca^2+ inducing ability of test compound using a cell line expressing human sphingosine-1-phosphate
CHO (Chinese hamster ovary) cells which overexpress human sphingosine-1-phosphate 1 receptor (S1P1 receptor) that react with sphingosine-1-phosphate (S1P) are used for a functional test method wherein an increase of calcium indicates a therapeutic efficacy of an agonist compound.
To prepare CHO cells which overexpress human S1P1˜S1P5, human clones for each subtype having HA at the N terminal residue (S1P1: EDG010TN00, S1P2: EDG020TN00, S1P3: EDG030TN00, S1P4: EDG060TN00, S1P5: EDG080TN00) were purchased from the Missouri S&T cDNA Resource Center and co-transfected with G-protein alpha subunit (G-alpha-16) into CHO-K1 cells.
A calcium measurement kit (Calcium 5 assay kit, Molecular Devices) was used to select an agonist compound. The principle of calcium measurement is that calcium-sensitive dyes are applied to cells, they enter into the cytoplasm of the cells during incubation, and when a ligand binds to a certain receptor to release calcium into the cytoplasm, the dyes bind to said calcium to induce fluorescence which is measured. This test method can sensitively measure only the intracellular calcium concentration change because any change that may occur outside the cells is masked by a masking dye.
The experimental procedure was as follows. One day before calcium measurement, CHO cells overexpressing hS1P1˜hS1P5 were dispensed into a 96-well plate (bottom clear black well) in 3×10^4 cells per well and cultured at 37° C. under 5% carbon dioxide condition for one day. 100 μl of calcium dyes mixed with Assay Buffer (1×HBSS, 20 mM HEPES, 2.5 mM probenecid, pH 7.4) were dispensed into culture solution in well and cultured at 37° C. for one hour. Test compounds were dissolved in 100% DMSO to prepare 1 μl solution per each concentration, and each solution was mixed with 199 μl Assay Buffer such that the concentrations were 50, 5, 0.5, 0.05, 0.005 and 0.0005 μM. The plate cultured with the calcium dyes was put into FlaxstationII (Molecular Devices), and the prepared test compounds (the final concentrations of the test compounds: 10, 1, 0.1, 0.01, 0.001 and 0.0001 μM) were programmed to be automatically inoculated in 50 μl per each well. For a total of 90 seconds, RFU (relative fluorescence unit) values were measured. The value of Reference (S1P substance 1 μM) deducting the blank value was set as 100%, and EC50 values of the test compounds were calculated by prism.

lymphocytes in blood = assay: Rat peripheral blood lymphocyte decrease; assay type: in vivo; conditions: male SD rat, administered once, 1 mg/kg, 6 hours after administration
Experimental: Evaluation of Rat Peripheral Blood Lymphocyte Decrease
Lymphocyte decrease in blood by S1P1 agonist was evaluated using a male SD rat. After adapting a rat weighing about 250 g to a breeding facility for one week, a test compound was administered to it once. At 3 hours, 6 hours, 24 hours and 48 hours after administration, blood was taken from a tail caudal vein, and about 200 μl of the blood was put into an EDTA tube while preventing it from clotting, followed by measurement of the number of lymphocytes in blood. The number of lymphocytes was analyzed by a hematological examination device, Hemoanalyzer. The doses of the test compounds were 3 mg/kg for Example 52, 94, 108, 117, 142, 145, 146, 148 and 149 compounds, and 1 mg/kg for Example 150, 151, 153, 154, 155, 158, 159 and 161 compounds.

Sequence of human sphingosine-1-phosphate 1 receptor (S1P1 receptor) (P21453 whole entry): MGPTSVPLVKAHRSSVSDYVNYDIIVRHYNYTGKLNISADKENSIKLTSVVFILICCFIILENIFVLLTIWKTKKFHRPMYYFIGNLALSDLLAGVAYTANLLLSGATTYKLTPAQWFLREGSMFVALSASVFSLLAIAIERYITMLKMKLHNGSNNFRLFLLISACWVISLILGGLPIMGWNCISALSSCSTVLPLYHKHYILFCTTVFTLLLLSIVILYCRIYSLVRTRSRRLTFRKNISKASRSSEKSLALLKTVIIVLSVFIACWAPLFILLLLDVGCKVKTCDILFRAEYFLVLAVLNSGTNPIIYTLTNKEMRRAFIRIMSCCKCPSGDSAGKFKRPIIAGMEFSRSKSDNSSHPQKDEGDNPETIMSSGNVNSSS

EC50 [1]	SMILES	Lymphocyte count (degree of decrease in lymphocyte number) (lymphocytes in blood)
11 nM	CC(C)n1nc(Cl)c2cc(COc3ccc4c(c3)CCC(CN3CC[C@@H](C(=O)O)C3)=C4Cl)ccc21 [Example 151, (R)-1-[1-chloro-6-(3-chloro-1-isopropyl-1H-indazol-5-ylmethoxy)-3,4-dihydro-naphthalen-2-ylmethyl]-pyrrolidine-3-carboxylic acid]	−80%
11 nM	CC(C)n1nc(Cl)c2cc(COc3ccc4c(c3)CCC(CN3CCC(C(=O)O)CC3)=C4Cl)ccc21 [Example 153, 1-[1-chloro-6-(3-chloro-1-isopropyl-1H-indazol-5-ylmethoxy)-3,4-dihydro-naphthalen-2-ylmethyl]-piperidine-4-carboxylic acid]	−80%
17 nM	CC(C)n1nc(Cl)c2cc(COc3ccc4c(c3)CCC(CN3CCC(F)(C(=O)O)CC3)=C4Cl)ccc21 [Example 154, 1-[1-chloro-6-(3-chloro-1-isopropyl-1H-indazol-5-ylmethoxy)-3,4-dihydro-naphthalen-2-ylmethyl]-4-fluoro-piperidine-4-carboxylic acid]	−65%
27 nM	CC(C)n1nc(Cl)c2cc(COc3ccc4c(c3)CCC(CN3CCCC(C(=O)O)C3)=C4Cl)ccc21 (centres unmarked) [Example 155, 1-[1-chloro-6-(3-chloro-1-isopropyl-1H-indazol-5-ylmethoxy)-3,4-dihydro-naphthalen-2-ylmethyl]-piperidine-3-carboxylic acid]	−75%
14 nM	CC(C)n1nc(Cl)c2cc(COc3ccc4c(c3)CCC(CN3CCCC(F)(C(=O)O)C3)=C4Cl)ccc21 (centres unmarked) [Example 158, 1-[1-chloro-6-(3-chloro-1-isopropyl-1H-indazol-5-ylmethoxy)-3,4-dihydro-naphthalen-2-ylmethyl]-3-fluoro-piperidine-3-carboxylic acid]	−30%
12 nM	CC(C)n1nc(Cl)c2cc(COc3ccc4c(c3)CCC(CN3CCC(C(=O)O)CC3)=C4Cl)cnc21 [Example 159, 1-[1-chloro-6-(3-chloro-1-isopropyl-1H-pyrazolo[3,4-b]pyridin-5-ylmethoxy)-3,4-dihydro-naphthalen-2-ylmethyl]-piperidine-4-carboxylic acid]	−80%
3 nM	CC(C)n1nc(Cl)c2cc(COc3ccc4c(c3)CCC(CN3CCC(F)(C(=O)O)C3)=C4Cl)ccc21 (centres unmarked) [Example 161, 1-[1-chloro-6-(3-chloro-1-isopropyl-1H-indazol-5-ylmethoxy)-3,4-dihydro-naphthalen-2-ylmethyl]-3-fluoro-pyrrolidine-3-carboxylic acid]	−65%
